# In ChEMBL document CHEMBL1201862, “PubChem BioAssay data set” (2004):
# Activity calls are given as the source filed them.
# What was measured:
# [1] = biological target: T1, High affinity choline transporter 1 (Homo sapiens, UniProt Q9GZV3); experiment: human choline transporter blockers, potency – cell-based, 5-point CRC, membrane potential dye, dose response (AID 504840); type: functional
# T1 sequence (Q9GZV3 whole entry): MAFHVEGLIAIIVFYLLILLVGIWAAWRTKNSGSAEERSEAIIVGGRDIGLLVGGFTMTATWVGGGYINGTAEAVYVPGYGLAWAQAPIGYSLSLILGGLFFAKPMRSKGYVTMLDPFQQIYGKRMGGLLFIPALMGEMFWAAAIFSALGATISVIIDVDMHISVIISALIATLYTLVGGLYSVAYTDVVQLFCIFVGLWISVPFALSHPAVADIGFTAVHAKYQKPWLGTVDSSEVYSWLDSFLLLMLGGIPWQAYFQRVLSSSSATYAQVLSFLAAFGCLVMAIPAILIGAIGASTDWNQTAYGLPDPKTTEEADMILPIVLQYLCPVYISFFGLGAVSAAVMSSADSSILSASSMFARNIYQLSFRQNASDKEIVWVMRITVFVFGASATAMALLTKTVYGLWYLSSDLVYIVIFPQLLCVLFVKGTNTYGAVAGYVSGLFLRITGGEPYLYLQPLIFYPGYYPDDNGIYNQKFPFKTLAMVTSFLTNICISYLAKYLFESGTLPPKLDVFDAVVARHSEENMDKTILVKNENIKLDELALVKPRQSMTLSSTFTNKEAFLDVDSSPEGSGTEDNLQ
# [2] = biological target: Voltage-dependent T-type calcium channel subunit alpha-1H (Homo sapiens, UniProt O95180); type: functional;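 note: channel activity triggered by adding a high calcium stimulation buffer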
# [3] = biological target: T2, Corticotropin-releasing factor receptor 2/Corticotropin-releasing factor-binding protein (Homo sapiens, UniProt P24387+Q13324); experiment: Dose Response confirmation of uHTS hits for small molecule antagonists of the CRF-binding protein and CRF-R2 receptor complex.; type: functional; details: read-out: IC50_Mean
# T2 sequence (Q13324 whole entry): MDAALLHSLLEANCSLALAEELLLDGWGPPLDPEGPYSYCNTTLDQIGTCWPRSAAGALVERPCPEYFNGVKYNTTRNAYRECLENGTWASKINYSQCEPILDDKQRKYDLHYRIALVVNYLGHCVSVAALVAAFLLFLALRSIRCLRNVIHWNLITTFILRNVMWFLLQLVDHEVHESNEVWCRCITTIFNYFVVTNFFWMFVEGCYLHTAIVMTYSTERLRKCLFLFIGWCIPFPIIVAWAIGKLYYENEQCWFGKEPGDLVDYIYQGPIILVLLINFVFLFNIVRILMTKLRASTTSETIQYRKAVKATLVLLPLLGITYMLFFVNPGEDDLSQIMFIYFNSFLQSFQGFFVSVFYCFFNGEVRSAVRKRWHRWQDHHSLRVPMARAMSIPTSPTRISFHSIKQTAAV
# T2 sequence (P24387 whole entry): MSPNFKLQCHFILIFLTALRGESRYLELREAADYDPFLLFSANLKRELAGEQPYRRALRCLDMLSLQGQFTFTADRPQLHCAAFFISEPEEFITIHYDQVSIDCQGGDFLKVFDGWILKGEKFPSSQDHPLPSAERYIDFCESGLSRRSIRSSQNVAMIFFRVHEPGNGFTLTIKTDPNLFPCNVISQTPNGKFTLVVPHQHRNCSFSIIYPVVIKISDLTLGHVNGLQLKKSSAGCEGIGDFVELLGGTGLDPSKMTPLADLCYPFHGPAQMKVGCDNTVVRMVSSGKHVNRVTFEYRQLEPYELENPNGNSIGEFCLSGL
# [4] = biological target: T2, Corticotropin-releasing factor receptor 2/Corticotropin-releasing factor-binding protein; experiment: activators of CRF receptor 2 with binding protein – uHTS hits, confirmation (AID 602473); type: functional; details: read-out: EC50_Mean
# P388/ADR = experiment: cells; type: functional; details: Mus musculus
# P388 = experiment: cells; type: functional; details: Mus musculus
# SN12K1 = experiment: cells; type: functional; details: Homo sapiens
# [5] = alpha-synuclein stem-loop luciferase translation blockers – H4 neuroglioma cells, luminescence, confirmation (AID 1988); type: functional, cell-based
# [6] = Luminescence Cell-Based Dose Response HTS to Identify Inhibitors of 5'UTR Stem-Loop Driven Prion Protein mRNA Translation in H4 Neuroglioblastoma Cells. [Related pubchem assays: 1827 (Project Summary), 1813 (Primary HTS)]; type: functional
# [7] = viability of uninfected HEp-2 cells – cell-based, HTS, cytotoxicity control for RSV inhibitor project, dose response (AID 2410); type: functional; details: human respiratory syncytial virus
# [8] = biological target: T3, Heat shock factor protein 1 (Mus musculus, UniProt P38532); experiment: enhancement of HSF1-driven luciferase signal – cell-based, NIH3T3, luminescence, dose retest, confirmation (AID 435004); type: functional;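 note: stress induced by proteasome inhibitor MG132 added 30 min after compound; luciferase reporter driven by HSF1 response element in NIH3T3 cells; actives raise luminescence as potentiators of the MG132 stress response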
# T3 sequence (P38532 whole entry): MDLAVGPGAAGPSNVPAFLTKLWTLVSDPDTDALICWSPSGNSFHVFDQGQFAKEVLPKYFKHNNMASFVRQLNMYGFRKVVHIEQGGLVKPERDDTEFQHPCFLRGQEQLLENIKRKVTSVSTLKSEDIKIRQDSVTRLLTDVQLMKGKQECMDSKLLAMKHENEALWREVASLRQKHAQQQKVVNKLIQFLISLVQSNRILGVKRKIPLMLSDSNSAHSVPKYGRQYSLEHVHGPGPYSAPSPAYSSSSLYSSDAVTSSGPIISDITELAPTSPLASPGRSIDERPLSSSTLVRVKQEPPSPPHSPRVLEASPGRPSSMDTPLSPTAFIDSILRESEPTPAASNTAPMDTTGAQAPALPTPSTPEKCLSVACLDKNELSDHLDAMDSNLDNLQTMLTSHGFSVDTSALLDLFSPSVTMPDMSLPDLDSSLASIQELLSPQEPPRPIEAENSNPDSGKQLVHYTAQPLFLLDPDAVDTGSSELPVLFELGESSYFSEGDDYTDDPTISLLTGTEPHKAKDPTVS
# [9] = luciferase reporter signal suppression in cells – H4 neuroglioma cells, luminescence, dose response (AID 1990); type: functional, cell-based
# [10] = biological target: T4, Ubiquitin-conjugating enzyme E2 N (Homo sapiens, UniProt P61088); type: functional;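 note: Dose-response confirmation in a TR-FRET assay detecting UBC13-driven polyubiquitin chain formation, inhibition measured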
# T4 sequence (P61088 whole entry): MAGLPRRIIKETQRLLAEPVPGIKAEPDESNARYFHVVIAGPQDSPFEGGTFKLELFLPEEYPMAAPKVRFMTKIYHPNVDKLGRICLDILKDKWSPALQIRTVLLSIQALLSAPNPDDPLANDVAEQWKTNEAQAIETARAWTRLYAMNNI
# [11] = non-specific 3'UTR reporter inhibition in Clone20-Shn3RL – cell-based, Renilla luciferase, cherry-picked, counter-screen for Shn3 inhibitor project, dose response (AID 624133); type: functional
# [12] = reduction of Shn3 3'UTR-driven luciferase in osteoblasts – cell-based, Clone20 osteoblasts, firefly luciferase, cherry-picked, dose response (AID 624132); type: functional;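 note: firefly luciferase luminescence from reporter carrying the Shn3 3'UTR in osteoblasts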
# [13] = loss of viability in HepG2 cells – cell-based, CellTiter-Glo, cherry-picked, cytotoxicity control for Shn3 inhibitor project, dose response (AID 624134); type: functional
# Aminopeptidase N = biological target: T5, Aminopeptidase N (Plasmodium falciparum FcB1/Columbia, UniProt O96935); experiment: malaria alanyl aminopeptidase activity blockers – biochemical, fluorogenic H-Leu-NHMec substrate, 1536-well (AID 1445); design: species or system Plasmodium falciparum 3D7, 3D7
# T5 sequence (O96935 whole entry): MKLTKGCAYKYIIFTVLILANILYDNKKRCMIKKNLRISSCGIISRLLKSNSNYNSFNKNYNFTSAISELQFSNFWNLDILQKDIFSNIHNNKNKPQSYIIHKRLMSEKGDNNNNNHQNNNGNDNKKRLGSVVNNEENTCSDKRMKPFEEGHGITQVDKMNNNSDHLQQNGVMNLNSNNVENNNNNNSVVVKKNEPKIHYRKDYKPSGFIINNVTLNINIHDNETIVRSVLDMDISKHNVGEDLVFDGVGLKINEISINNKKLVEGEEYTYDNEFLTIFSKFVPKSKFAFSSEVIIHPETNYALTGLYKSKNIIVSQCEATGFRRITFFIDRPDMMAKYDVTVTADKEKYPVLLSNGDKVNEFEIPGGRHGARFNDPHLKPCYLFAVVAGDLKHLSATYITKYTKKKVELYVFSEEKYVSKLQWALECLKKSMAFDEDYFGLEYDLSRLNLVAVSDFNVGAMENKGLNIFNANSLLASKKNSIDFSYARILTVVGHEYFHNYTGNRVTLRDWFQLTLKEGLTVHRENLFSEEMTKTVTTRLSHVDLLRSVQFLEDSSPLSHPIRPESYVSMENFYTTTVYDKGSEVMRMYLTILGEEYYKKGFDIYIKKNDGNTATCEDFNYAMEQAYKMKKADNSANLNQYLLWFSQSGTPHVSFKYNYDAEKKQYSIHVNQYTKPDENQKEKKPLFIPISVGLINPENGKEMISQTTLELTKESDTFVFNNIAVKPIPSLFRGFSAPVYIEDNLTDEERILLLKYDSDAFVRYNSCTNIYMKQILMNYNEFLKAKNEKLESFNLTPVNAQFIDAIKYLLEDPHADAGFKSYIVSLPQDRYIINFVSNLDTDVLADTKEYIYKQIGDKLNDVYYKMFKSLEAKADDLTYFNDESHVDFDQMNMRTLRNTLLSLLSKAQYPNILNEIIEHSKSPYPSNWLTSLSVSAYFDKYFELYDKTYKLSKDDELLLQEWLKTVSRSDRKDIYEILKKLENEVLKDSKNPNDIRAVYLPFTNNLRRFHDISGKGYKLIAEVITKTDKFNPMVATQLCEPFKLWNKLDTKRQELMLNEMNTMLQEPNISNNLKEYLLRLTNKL
# [14] = fluconazole-exposed Candida albicans growth modulators – fluorescence, retest, confirmation (AID 2467); type: functional, cell-based
# [15] = NIH-3T3 fibroblast cytotoxicity, dose response, cytotoxicity control, cell-based, fluorescence, Alamar Blue, secondary assay (AID 2327); type: functional;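 note: NIH-3T3 mouse fibroblasts cultured with fluconazole at 8 µg/mL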
# Voltage-dependent T-type calcium channel subunit alpha-1H, sequence (O95180 whole entry): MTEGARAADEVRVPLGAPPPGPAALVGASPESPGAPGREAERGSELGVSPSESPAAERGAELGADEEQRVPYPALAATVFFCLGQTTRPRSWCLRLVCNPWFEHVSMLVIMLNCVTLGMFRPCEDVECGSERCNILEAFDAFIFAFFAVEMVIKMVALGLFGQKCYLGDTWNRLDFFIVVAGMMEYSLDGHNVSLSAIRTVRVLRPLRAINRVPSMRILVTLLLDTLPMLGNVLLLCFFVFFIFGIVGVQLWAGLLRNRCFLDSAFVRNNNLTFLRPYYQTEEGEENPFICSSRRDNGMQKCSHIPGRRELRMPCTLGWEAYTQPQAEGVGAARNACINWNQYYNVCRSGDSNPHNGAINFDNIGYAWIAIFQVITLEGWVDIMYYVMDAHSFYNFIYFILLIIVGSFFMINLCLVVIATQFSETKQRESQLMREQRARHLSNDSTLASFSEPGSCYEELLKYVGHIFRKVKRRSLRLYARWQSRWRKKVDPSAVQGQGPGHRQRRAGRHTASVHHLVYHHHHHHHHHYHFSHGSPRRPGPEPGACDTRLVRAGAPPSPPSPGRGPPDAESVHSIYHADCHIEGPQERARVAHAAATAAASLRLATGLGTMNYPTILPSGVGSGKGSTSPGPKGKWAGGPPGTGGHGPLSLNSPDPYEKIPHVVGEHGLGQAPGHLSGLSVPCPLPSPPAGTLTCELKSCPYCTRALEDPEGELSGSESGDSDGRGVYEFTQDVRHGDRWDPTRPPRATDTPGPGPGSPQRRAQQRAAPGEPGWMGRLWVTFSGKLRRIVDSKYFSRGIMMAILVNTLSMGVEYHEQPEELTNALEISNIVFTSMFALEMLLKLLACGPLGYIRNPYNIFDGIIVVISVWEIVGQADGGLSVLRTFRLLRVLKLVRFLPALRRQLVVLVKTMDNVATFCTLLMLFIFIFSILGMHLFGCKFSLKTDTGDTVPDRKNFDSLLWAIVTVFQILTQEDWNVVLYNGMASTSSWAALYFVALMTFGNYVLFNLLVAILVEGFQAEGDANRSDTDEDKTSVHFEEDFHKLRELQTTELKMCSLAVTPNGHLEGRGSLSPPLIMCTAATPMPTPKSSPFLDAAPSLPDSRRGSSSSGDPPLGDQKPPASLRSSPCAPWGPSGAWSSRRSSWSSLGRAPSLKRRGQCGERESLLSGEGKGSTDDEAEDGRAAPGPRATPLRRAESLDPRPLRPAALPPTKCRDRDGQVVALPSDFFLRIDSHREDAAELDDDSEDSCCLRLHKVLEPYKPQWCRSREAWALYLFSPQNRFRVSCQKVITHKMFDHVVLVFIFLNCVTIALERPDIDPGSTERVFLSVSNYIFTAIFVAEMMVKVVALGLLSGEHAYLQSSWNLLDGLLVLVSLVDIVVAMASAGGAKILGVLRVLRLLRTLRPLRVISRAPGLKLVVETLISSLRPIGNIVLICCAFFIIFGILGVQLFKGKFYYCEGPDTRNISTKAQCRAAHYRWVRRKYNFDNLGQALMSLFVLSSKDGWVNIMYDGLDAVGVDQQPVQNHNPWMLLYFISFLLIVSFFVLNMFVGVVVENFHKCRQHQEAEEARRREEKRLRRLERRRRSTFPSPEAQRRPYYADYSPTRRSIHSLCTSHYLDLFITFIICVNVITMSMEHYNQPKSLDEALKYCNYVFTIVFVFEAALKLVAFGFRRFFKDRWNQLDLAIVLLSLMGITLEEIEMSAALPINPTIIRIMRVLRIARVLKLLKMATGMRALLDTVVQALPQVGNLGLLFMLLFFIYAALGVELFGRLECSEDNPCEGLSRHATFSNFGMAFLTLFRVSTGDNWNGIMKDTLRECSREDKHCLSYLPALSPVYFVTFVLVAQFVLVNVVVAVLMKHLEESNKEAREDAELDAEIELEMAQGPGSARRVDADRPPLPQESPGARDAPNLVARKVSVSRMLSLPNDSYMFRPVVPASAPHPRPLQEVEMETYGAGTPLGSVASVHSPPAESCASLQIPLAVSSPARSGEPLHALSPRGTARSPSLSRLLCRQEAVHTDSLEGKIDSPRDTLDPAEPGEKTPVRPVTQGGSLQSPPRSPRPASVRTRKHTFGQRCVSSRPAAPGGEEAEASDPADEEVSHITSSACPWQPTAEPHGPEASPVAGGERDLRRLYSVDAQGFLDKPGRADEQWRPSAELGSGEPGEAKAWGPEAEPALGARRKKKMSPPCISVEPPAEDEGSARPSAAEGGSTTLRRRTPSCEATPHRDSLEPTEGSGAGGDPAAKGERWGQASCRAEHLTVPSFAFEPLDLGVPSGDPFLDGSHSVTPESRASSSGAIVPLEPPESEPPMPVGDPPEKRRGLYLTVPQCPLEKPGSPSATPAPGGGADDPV
smiles,measurement,setting,value
CN(C)C1(C/N=C/c2cc(Cl)cc([N+](=O)[O-])c2O)CCCCC1,IC50,[1],14.5 µM (active)
COC(=O)c1ccccc1NC(=O)c1cccc(NC(=O)c2ccc(Br)o2)c1C,EC50,[2],5.7 µM (active)
CCCNS(=O)(=O)c1cccc(C(=O)NC2CCCc3ccccc32)c1 (stereo unspecified),IC50,[3],> 47.1 µM (inactive)
same,IC50,[1],13.5 µM (active)
same,EC50,[4],> 53 µM (inactive)
C=C1C(C)C2C(Cc3ccccc3)NC(=O)C23C(OC(C)=O)C=CC(C)(O)C(=O)C(C)C/C=C/C3C1O (stereo unspecified),GI50,P388/ADR,14.4 µM (inactive)
same,GI50,P388,0.454 µM (active)
same,GI50,SN12K1,0.0619 µM (active)
CC(C)CC(/C(O)=C(\C#N)c1nc2ccccc2[nH]1)N1C(=O)c2ccccc2C1=O (stereo unspecified),EC50,[5],12.3 µM (active)
same,EC50,[6],> 120 µM (not active)
same,EC50,[2],14.8 µM (active)
same,CC50,[7],21 µM (active)
same,EC50,[8],> 260 µM (inactive)
same,EC50,[9],> 120 µM (not active)
CCOC(=O)NC1=C(N2CC2)C(=O)C(NC(=O)OCC)=C(N2CC2)C1=O [DIAZIQUONE],GI50,P388/ADR,2.72 µM (inactive)
same,GI50,P388,1.77 µM (inactive)
same,GI50,SN12K1,2.94 µM (inactive)
CCc1nn2c(NCCOC)cc(C)nc2c1-c1ccc(F)cc1,IC50,[1],14.5 µM (active)
CCc1ccc(N(C(=O)c2snc(C(N)=O)c2N)C(C(=O)NCC2CCCO2)c2ccco2)cc1 (stereo unspecified),IC50,[10],> 20 µM (inactive)
COc1ccc(OCC(O)CNCCOc2ccccc2OC)c(C(C)(C)C)c1 (stereo unspecified),AC50,[11],19.6 µM (active)
same,AC50,[12],11.6 µM (active)
same,CC50,[7],14.7 µM (active)
same,AC50,[13],30.7 µM (active)
Cc1ccc(NC(=O)CSc2nccn2Cc2ccccc2)cc1C,EC50,[2],2.74 µM (active)
Cc1ccc(-c2nnn(CC(=O)N(c3ccccc3F)C(C(=O)NCC3CCCO3)c3c[nH]c4ccccc34)n2)cc1 (stereo unspecified),EC50,[2],4 µM (active)
CC(=O)NC(c1ccco1)c1cc(Cl)c2ccccc2c1O (stereo unspecified),IC50,[10],> 20 µM (inactive)
O=c1oc2c(CN3CCOCC3)c(O)ccc2c2c1CCCC2,IC50,Aminopeptidase N,23.7 µM (active)
COc1cccc(-c2csc(N3CCN(C(=O)NC45CC6CC(CC(C6)C4)C5)CC3)n2)c1,EC50,[2],5.32 µM (active)
CC(C)(C)OC(=O)[C@H](Cc1ccccc1)NC(=O)c1nc[nH]c1C(=O)N[C@@H](CCCCN)C(=O)OC(C)(C)C,IC50,[10],> 20 µM (inactive)
O=C1CC(c2nc3ccccc3[nH]2)CN1c1cccc(C(F)(F)F)c1 (stereo unspecified),EC50,[2],8.89 µM (active)
Cc1ccccc1-n1c(C)cc(/C=N/NC(=O)c2ccc(CN3CCOCC3)cc2)c1C,IC50,[1],7.94 µM (active)
CCc1nnc(NS(=O)(=O)c2ccc(NC(=S)NC(=O)c3cccs3)cc2)s1,IC50,Aminopeptidase N,35.4 µM (active)
CN(C)c1oc(-c2cccs2)nc1C#N,IC50,Aminopeptidase N,104 µM (active)
Cc1ccc(C)c(NC(=O)C2C(c3ccccc3)C2(Cl)Cl)c1 (stereo unspecified),EC50,[2],0.968 µM (active)
Cc1noc(NS(=O)(=O)c2ccc(NC(=O)C(CC(C)C)N3C(=O)c4ccccc4C3=O)cc2)c1C (stereo unspecified),IC50,Aminopeptidase N,7.56 µM (active)
C=C1CC2(OC1=O)c1ccccc1CCc1ccccc12,AC50,[11],5.67 µM (active)
same,AC50,[12],1.28 µM (active)
same,AC50,[13],11.4 µM (active)
CCN(CC)C(=O)Cn1c(=O)n(-c2ccccc2)c(=O)c2c3c(sc21)CCC3,EC50,[14],> 38 µM (not active)
same,IC50,Aminopeptidase N,51.2 µM (active)
same,EC50,[15],> 160 µM (inactive)
O=C(Cc1c[nH]c2ccccc12)OCCOC(=O)Cc1c[nH]c2ccccc12,EC50,[2],4.77 µM (active)
O=C(CSc1nnc(-c2ccncc2)n1Cc1ccco1)c1ccc(Cl)cc1,IC50,[1],1.91 µM (active)
CN(CCOc1ccc(Cl)cc1)C(=O)c1cccc(S(=O)(=O)N2CCN(Cc3ccccc3)CC2)c1,AC50,[11],3.57 µM (active)
same,AC50,[12],2.29 µM (active)
same,AC50,[13],> 70 µM (inactive)
CN(C)Cc1c(O)ccc2c3c(c(=O)oc12)CCCCC3,IC50,Aminopeptidase N,44.5 µM (active)
NS(=O)(=O)c1ccc(CCNCc2cc(Br)ccc2OCc2ccccc2)cc1,AC50,[11],5.96 µM (active)
same,AC50,[12],2.92 µM (active)
same,AC50,[13],53.7 µM (active)
CN(C(=S)NC(=O)CCCOc1ccc(Cl)cc1Cl)c1ccccc1,EC50,[2],4.13 µM (active)
